From patent US20250032581A1, “COMPOSITIONS AND ARTICLES COMPRISING AN ADNF POLYPEPTIDE” (RAMOT AT TEL-AVIV UNIVERSITY LTD., priority 2021, published 2025)

What was measured:
Tyr mice [1] = assay: RNA seq of mouse spleens; type: in vivo
Procedure: RNA seq—Total RNA was extracted from 14-week-old mouse spleens and sequenced using standard methods on NextSeq500 system (Illumina) as detailed. Data were analyzed as previously described (9).

Tyr-GFP mouse model = assay: Dendritic spine quantitation in Tyr-GFP mice; type: in vivo
Procedure: Spine quantitation—For determination of dendritic spine morphology, the Tyr-GFP mouse model was used and generated as described(12). 1.5-2-month-old Tyr-GFP-mice were treated for 9 consecutive days with either intraperitoneal NAP injection (0.4 μg/0.1 ml saline) or with 0.1 ml saline. On day 9, mice were perfused, and brains were subjected to immunohistochemistry and imaging (12).

Tyr mice [2] = assay: CatWalk gait analysis; type: in vivo, mouse
Procedure: Animals—Animals were housed under a 12-hour light/dark cycle, with food and water ad-libitum. Mouse pups were subcutaneously administrated with NAP [having an amino acid sequence NAPVSIPQ (SEQ ID NO: 2), 25 μg NAP/1 ml saline] as described (8, 12). At 21 days of age mice were administered daily intranasal NAP in vehicle solution (“DD”—7.5 mg/ml of NaCl, 1.7 mg/ml of citric acid, 3 mg/ml of disodium phosphate dihydrate, and 0.2 mg/ml of 50% benzalkonium chloride solution) (0.5 μg NAP/5p1 DD) (8, 9, 12, and U.S. Pat. No. 10,912,819 to Gozes). These mice continued to behavioral analysis as described hereinbelow. The noninvasive intranasal route was chosen as these experiments required daily handling and administration. Age (weeks) of mice during behavioral experiments (mean±SEM) was as follows: Catwalk—9.23±0.15, grooming—10±0.15, social approach—10.5±0.12, odor-discrimination—12.12±0.13, hanging-wire—13±0.14, hotplate—13.18±0.13. Group size was determined following previous experiments (12). Pups were randomly allocated to either the NAP or DD group according to sex and genotype. All procedures involving animals were conducted under the supervision and approval of the institutional animal care and use committee of Tel Aviv University and the Israeli Ministry of Health.
Catwalk—Was performed as previously described (12).
Briefly, for ear twitch reflex, a cotton tip was gently brushed against the tip of the ear three times, between postnatal days 7-15 or until the pup responded correctly for two consecutive days. For air righting reflex, the pup was held up-side down and released ˜10.5 cm above the cage, containing 5 cm of shavings. The test was performed between postnatal days 8-21 or until the pup landed on the shavings with all four paws, for two consecutive days. For surface righting reflex, pups were placed on their backs on a level surface, the test was performed between postnatal days 1-13 until the pups was able to right itself with all four paws on the surface in under a second for two consecutive days. For eye opening, mice were observed daily until both eyes were open (eyelids separated completely). For auditory startle, the pup was placed on a level surface and the experimenter clapped loudly twice until a visible startle response was evident for 2 consecutive days. The test was performed between days 7-18. For cliff aversion, pups were placed on the edge of a small box (approx. 4 cm in height) with both paws protruding over the edge of the box. Pups were allowed 30 sec to avoid the cliff and move themselves backwards. Test was performed between day 1-14 until the pup avoided the cliff in under 30 sec for two consecutive days^9. For the rooting reflex, a cotton tip was gently brushed against the sides of the pup's mouth until the pup moved its head to the direction of the stroke. Both sides were tested twice. […] All tests were conducted between 10 AM-4 PM. For the first 5 postnatal days, each pup was put under a single 60-watt bulb during testing to assure the pups' warmth. • Novel object recognition: Briefly, the open field test was used for the first day of habituation since both tests are conducted in the same arena. The following day animals underwent another habituation to the arena (5 mins). As described, the test included two consecutive days of habituation and the experimental days which consisted of the three phases. […]

CC[C@H](C)[C@H](NC(=O)[C@H](CO)NC(=O)[C@@H](NC(=O)[C@@H]1CCCN1C(=O)[C@H](C)NC(=O)[C@@H](N)CC(N)=O)C(C)C)C(=O)N1CCC[C@H]1C(=O)N[C@@H](CCC(N)=O)C(=O)O [NAP, NAPVSIPQ]
spleen gene expression converging on AKT1, nervous and reproductive systems development (Tyr mice [1]): corrected by NAP
spine density, motor cortex (Tyr-GFP mouse model; WT females, data not shown): no treatment effect was found on WT females
PSD95 volume in the hippocampus (Tyr-GFP mouse model; female Tyr mice): complete resolution upon NAP treatment
mushroom spine density, motor cortex (Tyr-GFP mouse model; female Tyr mice): NAP significantly affecting the larger, functionally stronger, mushroom shaped spines
increase in spine density, motor cortex L5 layer (Tyr-GFP mouse model; female Tyr mice, i.p. NAP, 9 days): ~17%
gait (Tyr mice [2]; WT mice, data not shown): No major NAP effect was observed in WT mice
gait: intensity parameters (Tyr mice [2]; female Tyr mice): significant NAP correction
gait: swing speed and swing duration (Tyr mice [2]; female Tyr mice): ameliorated by NAP
gait: front base of support (Tyr mice [2]; male Tyr mice): NAP correcting this phenotype in males
gait: print length and area (Tyr mice [2]; male Tyr mice, daily intranasal NAP): significant NAP recovery
